{
  "source": "patent US20240024273A1",
  "about": "“TOPICAL ADMINISTRATION OF 2-(DIETHYLAMINO)ETHYL 2-(4-ISOBUTYLPHENYL)PROPRIONATE FOR TREATMENT OF DISEASES” (TECHFIELDS PHARMA CO., LTD., priority 2020, published 2024)",
  "key": {"[1]": {"test_system": "Osteoarthritis Induced by Transection of the Anterior Cruciate Ligament (ACL)", "assay": "Osteoarthritis induced by transection of the anterior cruciate ligament (I), treatment 4-10 weeks post-surgery", "type": "in vivo, SD Rats", "settings": "transdermal; did not reach statistical significance"}, "[2]": {"test_system": "Mild to Moderate Osteoarthritis of the Knee", "assay": "Phase 2 study: use of rescue medication (paracetamol)", "type": "in vivo, human", "procedure": "Subjects taking nonsteroidal anti-inflammatory drugs (NSAID) or other analgesics may enroll in the trial, but will discontinue any analgesic therapy for the duration of the study, starting at least 4 days (or 5 half lives, whichever is longer) prior to administration of the first dose of study medication (i.e., for an analgesic washout period before Day 1). Subjects will be allowed to take rescue medication (up to six 325 mg tablets [total of 1950 mg] of acetaminophen per day; provided by the Sponsor) for residual knee or other body pain starting 4 days (or 5 half lives, whichever is longer) prior to administration of the first dose of study medication except during the 24 hours prior to Baseline (Day 1), Week 2, Week 4, Week 8, Week 12/end of study (EOS), and Follow up assessments.\nSubjects will record the following information in a Daily Diary starting at Screening: the amount of knee pain in the target knee while walking during the preceding 24 hours (using a 100 mm visual analog scale [VAS]), the times and number of sprays for each administration of study medication, the times when the subject washes his/her knees and/or takes a shower, the number of tablets of rescue medication taken that day and the times taken, the reason for taking the rescue medication (e.g., knee pain, headache, low back pain), any other concomitant medications taken that day, and any AEs occurring that day.\n3.9.3. Exploratory Efficacy Endpoints: • 1. Subject's global assessment of disease status of the target knee at 2, 4, 8, and 12 weeks of treatment; • 2. Investigator's global assessment of disease status of the target knee at 2, 4, 8, and 12 weeks of treatment; • 3. Subject's global assessment of response to therapy of the target knee at 2, 4, 8, and 12 weeks of treatment; • 4. Investigator's global assessment of response to therapy of the target knee at 2, 4, 8, and 12 weeks of treatment; • 5. Change from Baseline over time in VAS pain scores for the target knee from Daily Diary data; • 6. Amount of rescue medication (acetaminophen) consumed per day for target knee pain.\nZeidler thought that paracetamol as rescue medication in nearly all OA trials may be a missing link to explain at least partially the large placebo response in OA trials. (Henning Zeidler, Paracetamol and the Placebo Effect in Osteoarthritis Trials: A Missing Link? Pain Research and Treatment, Volume 2011, 1-6.) From published data, the difference of the used amount of paracetamol is very small between the placebo and active drug cohorts. […] (T. J. Schnitzer, A. Kivitz, H. Frayssinet, and B. Duquesroix, “Efficacy and safety of naproxcinod in the treatment of patients with osteoarthritis of the knee: a 13-week prospective, randomized, multicenter study.” Osteoarthritis and Cartilage, vol. 18, no. 5, pp. 629-639, 2010.) In this trial, NSAIDs or any analgesic therapy was discontinued for the duration of the study, starting at least 14 days (or 5 half lives, whichever is longer) prior to administration of the first dose of study medication (ie, for an analgesic washout period before Day 1). Subjects were allowed to take rescue medication (up to six 325 mg tablets [total of 1950 mg] of acetaminophen per day; provided by the Sponsor) for residual knee or other body pain starting at least 4 days (or 5 half lives, whichever is longer) prior to administration of the first dose of study medication except during the 24 hours prior to Baseline (Day 1), Week 2, Week 4, Week 8, Week 12/end of study (EOS), and Follow-up assessments."}, "[3]": {"settings": "for all pain and other conditions, 8.75 mg/knee (BID), Week 2"}, "[4]": {"settings": "for all pain and other conditions, 8.75 mg/knee (BID), Week 4"}, "[5]": {"settings": "for all pain and other conditions, 8.75 mg/knee (BID), Week 8"}, "[6]": {"settings": "for all pain and other conditions, 8.75 mg/knee (BID), Week 12"}, "[7]": {"settings": "for all pain and other conditions, 17.5 mg/knee (BID), Week 2"}},
  "data": [
    {"compound": "CCN(CC)CCOC(=O)C(C)c1ccc(CC(C)C)cc1", "note": "(stereo not drawn) [2-(diethylamino)ethyl 2-(4-isobutylphenyl)propionate]", "values": [
      {"measurement": "severity of osteoarthritic degeneration (histopathology)", "setting": "[1]", "result": "showed recognizable reduction in the severity of osteOArthritic"},
      {"measurement": "patients using rescue medication at the end of the study", "setting": "[2]; 8.75 mg/knee", "result": 17.3, "unit": "%"},
      {"measurement": "Rescue medication (paracetamol) only for knee pain, daily amount", "setting": "[2]; 8.75 mg/knee (BID), Day −2 to day −5 (baseline)", "result": 349, "unit": "mg/day/patient"},
      {"measurement": "Rescue medication (paracetamol) only for knee pain, daily amount", "setting": "[2]; 8.75 mg/knee (BID), Week 2", "result": 216, "unit": "mg/day/patient"},
      {"measurement": "Rescue medication (paracetamol), % of decrease from baseline", "setting": "[2]; 8.75 mg/knee (BID), Week 2", "result": 38.1, "unit": "%"},
      {"measurement": "Rescue medication (paracetamol) only for knee pain, daily amount", "setting": "[2]; 8.75 mg/knee (BID), Week 4", "result": 167, "unit": "mg/day/patient"},
      {"measurement": "Rescue medication (paracetamol), % of decrease from baseline", "setting": "[2]; 8.75 mg/knee (BID), Week 4", "result": 52.1, "unit": "%"},
      {"measurement": "Rescue medication (paracetamol) only for knee pain, daily amount", "setting": "[2]; 8.75 mg/knee (BID), Week 8", "result": 166, "unit": "mg/day/patient"},
      {"measurement": "Rescue medication (paracetamol), % of decrease from baseline", "setting": "[2]; 8.75 mg/knee (BID), Week 8", "result": 52.4, "unit": "%"},
      {"measurement": "Rescue medication (paracetamol) only for knee pain, daily amount", "setting": "[2]; 8.75 mg/knee (BID), Week 12", "result": 159, "unit": "mg/day/patient"},
      {"measurement": "Rescue medication (paracetamol), % of decrease from baseline", "setting": "[2]; 8.75 mg/knee (BID), Week 12", "result": 54.4, "unit": "%"},
      {"measurement": "patients using rescue medication at the end of the study", "setting": "[2]; 17.5 mg/knee", "result": 6.5, "unit": "%"},
      {"measurement": "Rescue medication (paracetamol) only for knee pain, daily amount", "setting": "[2]; 17.5 mg/knee (BID), Day −2 to day −5 (baseline)", "result": 243, "unit": "mg/day/patient"},
      {"measurement": "Rescue medication (paracetamol) only for knee pain, daily amount", "setting": "[2]; 17.5 mg/knee (BID), Week 2", "result": 86, "unit": "mg/day/patient"},
      {"measurement": "Rescue medication (paracetamol), % of decrease from baseline", "setting": "[2]; 17.5 mg/knee (BID), Week 2", "result": 64.6, "unit": "%"},
      {"measurement": "Rescue medication (paracetamol) only for knee pain, daily amount", "setting": "[2]; 17.5 mg/knee (BID), Week 4", "result": 67, "unit": "mg/day/patient"},
      {"measurement": "Rescue medication (paracetamol), % of decrease from baseline", "setting": "[2]; 17.5 mg/knee (BID), Week 4", "result": 72.4, "unit": "%"},
      {"measurement": "Rescue medication (paracetamol) only for knee pain, daily amount", "setting": "[2]; 17.5 mg/knee (BID), Week 8", "result": 54, "unit": "mg/day/patient"},
      {"measurement": "Rescue medication (paracetamol), % of decrease from baseline", "setting": "[2]; 17.5 mg/knee (BID), Week 8", "result": 77.8, "unit": "%"},
      {"measurement": "Rescue medication (paracetamol) only for knee pain, daily amount", "setting": "[2]; 17.5 mg/knee (BID), Week 12", "result": 56, "unit": "mg/day/patient"},
      {"measurement": "Rescue medication (paracetamol), % of decrease from baseline", "setting": "[2]; 17.5 mg/knee (BID), Week 12", "result": 77.0, "unit": "%"},
      {"measurement": "use of rescue medication for all pain and other conditions", "setting": "[2]; 17.5 mg/knee and 35 mg/knee groups, week 12", "result": "less than 100 mg/day/patient"},
      {"measurement": "patients using rescue medication at the end of the study", "setting": "[2]; 35 mg/knee", "result": 5.8, "unit": "%"},
      {"measurement": "Rescue medication (paracetamol) only for knee pain, daily amount", "setting": "[2]; 35 mg/knee (BID), Day −2 to day −5 (baseline)", "result": 291, "unit": "mg/day/patient"},
      {"measurement": "Rescue medication (paracetamol) only for knee pain, daily amount", "setting": "[2]; 35 mg/knee (BID), Week 2", "result": 98, "unit": "mg/day/patient"},
      {"measurement": "Rescue medication (paracetamol), % of decrease from baseline", "setting": "[2]; 35 mg/knee (BID), Week 2", "result": 66.3, "unit": "%"},
      {"measurement": "Rescue medication (paracetamol) only for knee pain, daily amount", "setting": "[2]; 35 mg/knee (BID), Week 4", "result": 88, "unit": "mg/day/patient"},
      {"measurement": "Rescue medication (paracetamol), % of decrease from baseline", "setting": "[2]; 35 mg/knee (BID), Week 4", "result": 69.8, "unit": "%"},
      {"measurement": "Rescue medication (paracetamol) only for knee pain, daily amount", "setting": "[2]; 35 mg/knee (BID), Week 8", "result": 54, "unit": "mg/day/patient"},
      {"measurement": "Rescue medication (paracetamol), % of decrease from baseline", "setting": "[2]; 35 mg/knee (BID), Week 8", "result": 81.4, "unit": "%"},
      {"measurement": "Rescue medication (paracetamol) only for knee pain, daily amount", "setting": "[2]; 35 mg/knee (BID), Week 12", "result": 44, "unit": "mg/day/patient"},
      {"measurement": "Rescue medication (paracetamol), % of decrease from baseline", "setting": "[2]; 35 mg/knee (BID), Week 12", "result": 84.9, "unit": "%"},
      {"measurement": "Daily amount of rescue medication (paracetamol)", "setting": "[2]; for all pain and other conditions, 8.75 mg/knee (BID), Day −2 to day −5 (baseline)", "result": 364, "unit": "mg/day/patient"},
      {"measurement": "Daily amount of rescue medication (paracetamol)", "setting": "[2]; [3]", "result": 263, "unit": "mg/day/patient"},
      {"measurement": "Rescue medication (paracetamol), % of decrease from baseline", "setting": "[2]; [3]", "result": 27.7, "unit": "%"},
      {"measurement": "Daily amount of rescue medication (paracetamol)", "setting": "[2]; [4]", "result": 208, "unit": "mg/day/patient"},
      {"measurement": "Rescue medication (paracetamol), % of decrease from baseline", "setting": "[2]; [4]", "result": 42.9, "unit": "%"},
      {"measurement": "Daily amount of rescue medication (paracetamol)", "setting": "[2]; [5]", "result": 210, "unit": "mg/day/patient"},
      {"measurement": "Rescue medication (paracetamol), % of decrease from baseline", "setting": "[2]; [5]", "result": 42.3, "unit": "%"},
      {"measurement": "Daily amount of rescue medication (paracetamol)", "setting": "[2]; [6]", "result": 209, "unit": "mg/day/patient"},
      {"measurement": "Rescue medication (paracetamol), % of decrease from baseline", "setting": "[2]; [6]", "result": 42.6, "unit": "%"},
      {"measurement": "Daily amount of rescue medication (paracetamol)", "setting": "[2]; for all pain and other conditions, 17.5 mg/knee (BID), Day −2 to day −5 (baseline)", "result": 278, "unit": "mg/day/patient"},
      {"measurement": "Daily amount of rescue medication (paracetamol)", "setting": "[2]; [7]", "result": 136, "unit": "mg/day/patient"},
      {"measurement": "Rescue medication (paracetamol), % of decrease from baseline", "setting": "[2]; [7]", "result": 51.1, "unit": "%"},
      {"measurement": "Daily amount of rescue medication (paracetamol)", "setting": "[2]; for all pain and other conditions, 17.5 mg/knee (BID), Week 4", "result": 115, "unit": "mg/day/patient"}
    ]}
  ]
}
